These results are taken from ChEMBL document CHEMBL5104103 (J Med Chem, 2022).

SMILES strings stand for the structures.

The assay has as its target T1, Tyrosine-protein kinase ITK/TSK (Homo sapiens) (UniProt Q08881).
T1 sequence (whole entry): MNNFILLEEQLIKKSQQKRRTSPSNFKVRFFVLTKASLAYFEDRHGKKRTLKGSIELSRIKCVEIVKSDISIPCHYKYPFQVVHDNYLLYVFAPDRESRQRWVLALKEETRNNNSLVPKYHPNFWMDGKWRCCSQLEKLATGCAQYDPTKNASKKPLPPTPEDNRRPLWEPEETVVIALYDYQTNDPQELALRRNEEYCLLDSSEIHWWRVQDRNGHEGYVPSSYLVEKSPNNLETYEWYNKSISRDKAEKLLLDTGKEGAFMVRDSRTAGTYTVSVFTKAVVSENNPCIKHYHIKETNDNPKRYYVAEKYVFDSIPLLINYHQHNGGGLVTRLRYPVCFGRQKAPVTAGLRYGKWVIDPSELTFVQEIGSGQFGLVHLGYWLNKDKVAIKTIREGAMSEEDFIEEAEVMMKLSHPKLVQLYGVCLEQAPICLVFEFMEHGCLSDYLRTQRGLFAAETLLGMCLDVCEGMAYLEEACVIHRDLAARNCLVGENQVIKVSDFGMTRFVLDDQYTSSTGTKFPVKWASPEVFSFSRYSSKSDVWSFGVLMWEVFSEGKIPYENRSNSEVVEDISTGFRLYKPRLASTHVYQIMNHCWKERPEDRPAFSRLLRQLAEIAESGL
As to the kind of experiment: Displacement of competitive tracer from ITK (unknown origin) assessed as target occupancy at […] preincubated for 15 mins measured for 1 hr relative to control. The settings on record: dose 1.5 µM.

On to `CC(C)(C)/C=C(\C#N)C(=O)N1CCC[C@@H](n2nc(-c3ccc(Oc4ccccc4)cc3F)c3c(N)ncnc32)C1` [ATUZABRUTINIB], for which the Activity was found to be 82%.
